Measured values as given in patent US20240101600A1, “FIBROBLAST GROWTH FACTOR RECEPTOR (FGFR)-TARGETING ANTAGONISTIC SHORT PEPTIDE” (WENZHOU MEDICAL UNIVERSITY, priority 2019, published 2024).
Where no end group is shown, it is not given here.

Columns and labels:
Format in all cases: cell-based
FGFR1 [1] = molecular target: FGFR1 (Mus musculus, UniProt P16092); assay: Western blot of bFGF-induced FGFR1 activation in Balb/c 3T3 fibroblasts; set-up: endogenous in cells; host or cells: MEF-WT; Balb/c 3T3; conditions: P48 pretreatment 10 min, bFGF 15 min
Protocol: (§1) Human embryonic kidney cells HEK-293, fibroblasts MEF-WT and Balb/c 3T3 were inoculated into 6-well plates, respectively. After growing adherently overnight, the cells were pretreated with P48 for 10 min or with AZD4547/PD173074/SSR for 2 h, and incubated with bFGF for 15 min. […] The experimental procedure was as follows: MEF-WT and MEFKO (FGFR1-FGFR2-FRS2a) cells (1×10^6 cells/ml) were inoculated in a 35 mm petri dish. After being adhered to the wall of petri dish overnight, the cells were washed with PBS; FITC-conjugated P48 (1, 10, 100 and 1000 nM) was added, and the cells were incubated in an incubator for 30 min. The cells were immobilized with 1% paraformaldehyde in the dark and washed with PBS. An expression level of the FITC was measured at a fluorescence channel 1 (FL-1) (530 nm), with an excitation wavelength of 488 nm. Data analysis was conducted using CellQuest software (Becton Dickinson).

[2] = test system: gastric cancer cells SGC-7901; assay: Flow cytometry cell cycle analysis of SGC-7901 cells; conditions: P48 with bFGF, 24 h
FGFR1 [3] = molecular target: T1, FGFR1 (Homo sapiens, UniProt P11362); assay: Western blot of FGFR1 signaling pathway in lung cancer cells NCI-H460; set-up: endogenous in cells; host or cells: Hela229; NCI-H460; SGC-7901; MGC-803; conditions: bFGF stimulation
Protocol: (§2) Cervical cancer cells Hela229, melanoma B16-F10, lung cancer cells NCI-H460, gastric cancer cells SGC-7901 and MGC-803 were inoculated into 6-well plates, respectively. After growing adherently overnight, the cells were pretreated with P48 for 10 min or with AZD4547/SSR for 2 h, and incubated with bFGF for 15 min or with KGF for 20 min.

[4] = test system: gastric cancer cells SGC-7901; assay: Transwell migration of SGC-7901 cells; conditions: 24 h
Protocol: In vitro anti-tumor activity of a short peptide compound P48 Hela229 (1500 cells/100 μl), B16-F10 (1000 cells/100 μl), NCI-H460 (4000 cells/100 μl) and SGC7901 (4000 cells/100 μl) cells were inoculated in 96-well plates. After incubated overnight adherently, the original medium was replaced with a Dulbecco's modified eagle medium (DMEM) containing 0.1% fetal bovine serum (FBS) or a Roswell Park Memorial Institute 1640 (RPMI-1640) medium containing 0.1% FBS, and culture was continued for 24 h. A mixture of P48 and bFGF, or bFGF alone were added into corresponding wells, and incubated for 48 h; an MTT solution (5 mg/mL) prepared by PBS was added to the cells in each well at 37° C., and treated for 4 h. The MTT was removed by aspiration, 150 μL of DMSO was added to each well, shaking was conducted for 10 min, and an optical density (OD) value was quantified with a microplate reader (SpectraMax M2/M2e, Molecular Devices, Sunnyvale, USA) at a wavelength of 490 nm. The percentage of drug growth inhibition rate was calculated by comparing with the bFGF group. […] The experimental procedure was as follows: 10% FBS-containing medium (500 μl) was added to a lower surface of a transwell insertion chamber, the cells together with the drug were inoculated into an upper chamber, and cultured with a serum-free medium (200 μl). […]

FGFR1 [5] = molecular target: T1, FGFR1; assay: Flow cytometry binding of P48 to FGFR1 in SGC-7901 cells; set-up: endogenous in cells; host or cells: Hela229; NCI-H460; SGC-7901; MGC-803
Protocol: as §1, §2

T1 sequence (P11362 22-822): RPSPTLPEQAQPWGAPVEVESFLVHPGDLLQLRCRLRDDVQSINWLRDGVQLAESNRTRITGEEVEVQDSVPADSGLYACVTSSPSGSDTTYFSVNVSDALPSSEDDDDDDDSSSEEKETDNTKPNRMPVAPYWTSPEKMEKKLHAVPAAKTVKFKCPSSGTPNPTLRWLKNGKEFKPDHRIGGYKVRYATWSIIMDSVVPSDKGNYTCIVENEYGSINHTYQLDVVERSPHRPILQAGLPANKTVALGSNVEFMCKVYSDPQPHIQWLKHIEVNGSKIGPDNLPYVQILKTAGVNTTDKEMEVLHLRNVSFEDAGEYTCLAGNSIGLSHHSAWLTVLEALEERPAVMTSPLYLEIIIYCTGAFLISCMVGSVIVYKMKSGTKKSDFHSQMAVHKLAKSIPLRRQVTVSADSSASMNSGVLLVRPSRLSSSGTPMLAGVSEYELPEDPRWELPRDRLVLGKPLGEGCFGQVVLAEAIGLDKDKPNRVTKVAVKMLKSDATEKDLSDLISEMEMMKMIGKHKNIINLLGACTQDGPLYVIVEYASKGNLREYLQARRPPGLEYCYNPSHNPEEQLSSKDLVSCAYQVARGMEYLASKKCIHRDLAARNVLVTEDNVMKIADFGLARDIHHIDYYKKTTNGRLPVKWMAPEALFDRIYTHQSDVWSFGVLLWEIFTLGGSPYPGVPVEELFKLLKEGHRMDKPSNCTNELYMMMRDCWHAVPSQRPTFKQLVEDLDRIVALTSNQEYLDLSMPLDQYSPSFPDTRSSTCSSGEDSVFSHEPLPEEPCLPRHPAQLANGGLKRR
FGFR1 (Mus musculus, UniProt P16092), sequence (P16092 22-822): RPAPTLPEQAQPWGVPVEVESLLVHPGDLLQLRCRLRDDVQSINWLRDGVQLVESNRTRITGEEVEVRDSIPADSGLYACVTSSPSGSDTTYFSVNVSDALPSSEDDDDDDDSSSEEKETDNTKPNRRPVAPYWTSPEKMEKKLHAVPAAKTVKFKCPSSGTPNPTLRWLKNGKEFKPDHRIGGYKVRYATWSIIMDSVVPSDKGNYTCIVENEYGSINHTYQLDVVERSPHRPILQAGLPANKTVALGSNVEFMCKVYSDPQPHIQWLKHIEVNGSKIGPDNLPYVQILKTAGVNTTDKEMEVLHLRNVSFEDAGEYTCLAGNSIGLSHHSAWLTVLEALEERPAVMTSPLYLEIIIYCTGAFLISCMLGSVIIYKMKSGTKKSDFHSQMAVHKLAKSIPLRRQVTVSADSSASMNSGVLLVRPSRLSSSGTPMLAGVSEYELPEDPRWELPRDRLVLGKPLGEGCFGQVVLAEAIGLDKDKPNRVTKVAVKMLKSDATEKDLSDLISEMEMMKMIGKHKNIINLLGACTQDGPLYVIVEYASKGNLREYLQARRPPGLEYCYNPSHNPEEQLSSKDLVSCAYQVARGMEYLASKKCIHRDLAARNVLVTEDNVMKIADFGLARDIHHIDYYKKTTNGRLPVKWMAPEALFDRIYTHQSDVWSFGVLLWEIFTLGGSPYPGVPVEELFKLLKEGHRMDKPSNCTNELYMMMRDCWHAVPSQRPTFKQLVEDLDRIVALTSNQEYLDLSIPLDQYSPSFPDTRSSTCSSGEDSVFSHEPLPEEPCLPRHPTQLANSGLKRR

**Q.** Which results are given for “SPPRYPGGGS-NH2 [P48, Ser-Pro-Pro-Arg-Tyr-Pro-Gly-Gly-Gly-Ser-NH2]”?
**A.** inhibition of FGFR1 activation induced by bFGF (FGFR1 [1]): can inhibit activation of FGFR1 induced by bFGF in a concentration-dependent manner; cell cycle arrest [2]: can block gastric cancer cells SGC-7901 in G0/G1 phase in a concentration-dependent manner; inhibition of FGFR1 signaling pathway (FGFR1 [3]): can inhibit the FGFR1 signaling pathway of cervical cancer, melanoma, lung cancer and gastric cancer in a concentration-dependent manner; inhibition of cell migration [4]: can inhibit cell migration in a concentration-dependent manner; binding to the FGFR1 site of the cell membrane surface (FGFR1 [5]): desirable binding effect
